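Briefly, cells in 96-well plates were exposed to five compound concentrations for 48 h, and endpoints were estimated by linear interpolation. TGI marks complete inhibition of growth.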
Columns and labels:
Assay in all cases: NCI anticancer screen, dose series, 48 h
HL-60(TB) leukemia = tested on: HL-60(TB) leukemia
LXFL 529 NSCLC = tested on: LXFL 529 NSCLC
KM12 colon = tested on: KM12 colon
UACC-257 melanoma = tested on: UACC-257 melanoma
RPMI-8226 leukemia = tested on: RPMI-8226 leukemia
M14 melanoma = tested on: M14 melanoma
DMS 114 small cell lung = tested on: DMS 114 small cell lung
SK-OV-3 ovarian = tested on: SK-OV-3 ovarian
ACHN renal = tested on: ACHN renal
OVCAR-3 ovarian = tested on: OVCAR-3 ovarian
MALME-3M melanoma = tested on: MALME-3M melanoma
NCI-H460 lung = tested on: NCI-H460 lung
RXF 393 renal = tested on: RXF 393 renal
MOLT-4 leukemia = tested on: MOLT-4 leukemia
HCC-2998 colon = tested on: HCC-2998 colon
SNB-19 CNS = tested on: SNB-19 CNS
SK-MEL-2 melanoma = tested on: SK-MEL-2 melanoma
SK-MEL-5 melanoma = tested on: SK-MEL-5 melanoma
XF 498 CNS = tested on: XF 498 CNS
OVCAR-5 ovarian = tested on: OVCAR-5 ovarian
NCI-H23 lung = tested on: NCI-H23 lung
EKVX NSCLC = tested on: EKVX NSCLC
KM20L2 colon = tested on: KM20L2 colon
U251 CNS = tested on: U251 CNS
HT29 colon = tested on: HT29 colon
SF-295 CNS = tested on: SF-295 CNS
A498 renal = tested on: A498 renal
SN12C renal = tested on: SN12C renal
HCT-116 colon = tested on: HCT-116 colon
HOP-92 NSCLC = tested on: HOP-92 NSCLC
TK-10 renal = tested on: TK-10 renal
HOP-62 NSCLC = tested on: HOP-62 NSCLC
HCT-15 colon = tested on: HCT-15 colon
786-0 renal = tested on: 786-0 renal
SW-620 colon = tested on: SW-620 colon
NCI-H522 lung = tested on: NCI-H522 lung
SF-268 CNS = tested on: SF-268 CNS
OVCAR-4 ovarian = tested on: OVCAR-4 ovarian
A549 NSCLC = tested on: A549 NSCLC
K-562 leukemia = tested on: K-562 leukemia
CCRF-CEM leukemia = tested on: CCRF-CEM leukemia
SR leukemia = tested on: SR leukemia
HOP-18 NSCLC = tested on: HOP-18 NSCLC
LOX IMVI melanoma = tested on: LOX IMVI melanoma
SNB-75 CNS = tested on: SNB-75 CNS
UACC-62 melanoma = tested on: UACC-62 melanoma
SNB-78 CNS = tested on: SNB-78 CNS
UO-31 renal = tested on: UO-31 renal
M19-MEL melanoma = tested on: M19-MEL melanoma
SF-539 CNS = tested on: SF-539 CNS
SK-MEL-28 melanoma = tested on: SK-MEL-28 melanoma
IGROV1 ovarian = tested on: IGROV1 ovarian
COLO 205 colon = tested on: COLO 205 colon
NCI-H226 lung = tested on: NCI-H226 lung
OVCAR-8 ovarian = tested on: OVCAR-8 ovarian
CAKI-1 renal = tested on: CAKI-1 renal
DMS 273 small cell lung = tested on: DMS 273 small cell lung
DLD-1 colon = tested on: DLD-1 colon

In the case of `N#CC1(c2nc3ccccc3o2)C(=O)C(=O)N(C2C3CC4CC(C3)CC2C4)C(=O)C1=O` (configuration not stated), the TGI (HL-60(TB) leukemia) is reported as over 100 µM, the TGI (LXFL 529 NSCLC) is reported as over 100 µM and the TGI (KM12 colon) is reported as over 100 µM. For the same compound, the TGI (UACC-257 melanoma) was over 100 µM, the TGI (RPMI-8226 leukemia) was over 100 µM and the TGI (M14 melanoma) was over 100 µM. The TGI (DMS 114 small cell lung) was over 100 µM, the TGI (SK-OV-3 ovarian) was over 100 µM and the TGI (ACHN renal) was over 100 µM. For the same compound, the TGI (OVCAR-3 ovarian) was over 100 µM, the TGI (MALME-3M melanoma) was over 100 µM and the TGI (NCI-H460 lung) was over 100 µM. It also gave a TGI (RXF 393 renal) of over 100 µM, a TGI (MOLT-4 leukemia) of over 100 µM and a TGI (HCC-2998 colon) of over 100 µM. It also gave a TGI (SNB-19 CNS) of over 100 µM, a TGI (SK-MEL-2 melanoma) of over 100 µM and a TGI (SK-MEL-5 melanoma) of over 100 µM. For the same compound, the TGI (XF 498 CNS) was over 100 µM, the TGI (OVCAR-5 ovarian) was over 100 µM and the TGI (NCI-H23 lung) was over 100 µM. For the same compound, the TGI (EKVX NSCLC) was over 100 µM, the TGI (KM20L2 colon) was over 100 µM and the TGI (U251 CNS) was over 100 µM. It also gave a TGI (HT29 colon) of over 100 µM, a TGI (SF-295 CNS) of over 100 µM and a TGI (A498 renal) of over 100 µM. It also gave a TGI (SN12C renal) of over 100 µM, a TGI (HCT-116 colon) of over 100 µM and a TGI (HOP-92 NSCLC) of over 100 µM. The TGI (TK-10 renal) was over 100 µM, the TGI (HOP-62 NSCLC) was over 100 µM and the TGI (HCT-15 colon) was over 100 µM. It also gave a TGI (786-0 renal) of over 100 µM, a TGI (SW-620 colon) of over 100 µM and a TGI (NCI-H522 lung) of over 100 µM. It also gave a TGI (SF-268 CNS) of over 100 µM, a TGI (OVCAR-4 ovarian) of over 100 µM and a TGI (A549 NSCLC) of over 100 µM. The TGI (K-562 leukemia) was over 100 µM, the TGI (CCRF-CEM leukemia) was over 100 µM and the TGI (SR leukemia) was over 100 µM. For the same compound, the TGI (HOP-18 NSCLC) was over 100 µM, the TGI (LOX IMVI melanoma) was over 100 µM and the TGI (SNB-75 CNS) was over 100 µM. For the same compound, the TGI (UACC-62 melanoma) was over 100 µM, the TGI (SNB-78 CNS) was over 100 µM and the TGI (UO-31 renal) was over 100 µM. The TGI (M19-MEL melanoma) was over 100 µM, the TGI (SF-539 CNS) was over 100 µM and the TGI (SK-MEL-28 melanoma) was over 100 µM. The TGI (IGROV1 ovarian) was over 100 µM, the TGI (COLO 205 colon) was over 100 µM and the TGI (NCI-H226 lung) was over 100 µM. The TGI (OVCAR-8 ovarian) was over 100 µM, the TGI (CAKI-1 renal) was over 100 µM and the TGI (DMS 273 small cell lung) was over 100 µM.
For `O=C(/C=C/c1ccccc1)/C=C/c1ccccc1O`, the TGI (HL-60(TB) leukemia) was 35.8 µM, the TGI (LXFL 529 NSCLC) was 33.7 µM and the TGI (KM12 colon) was 31.7 µM. It also gave a TGI (UACC-257 melanoma) of 44.3 µM, a TGI (RPMI-8226 leukemia) of 43.8 µM and a TGI (M14 melanoma) of 50.7 µM. The TGI (DMS 114 small cell lung) was 35.3 µM, the TGI (SK-OV-3 ovarian) was 57.5 µM and the TGI (ACHN renal) was 42.1 µM. It also gave a TGI (OVCAR-3 ovarian) of 0.842 µM, a TGI (MALME-3M melanoma) of 1.83 µM and a TGI (NCI-H460 lung) of 39.7 µM. The TGI (RXF 393 renal) was 37.3 µM, the TGI (MOLT-4 leukemia) was 63.1 µM and the TGI (HCC-2998 colon) was 26.8 µM. For the same compound, the TGI (SNB-19 CNS) was 61.5 µM, the TGI (SK-MEL-2 melanoma) was over 100 µM and the TGI (SK-MEL-5 melanoma) was 41.6 µM. The TGI (XF 498 CNS) was over 100 µM, the TGI (OVCAR-5 ovarian) was 65.3 µM and the TGI (NCI-H23 lung) was 49.3 µM. The TGI (EKVX NSCLC) was 39.8 µM, the TGI (KM20L2 colon) was 34.8 µM and the TGI (U251 CNS) was 32.7 µM. The TGI (HT29 colon) was 47.6 µM, the TGI (SF-295 CNS) was 48.8 µM and the TGI (A498 renal) was 70.9 µM. It also gave a TGI (SN12C renal) of 30.4 µM, a TGI (HCT-116 colon) of 28.7 µM and a TGI (HOP-92 NSCLC) of over 100 µM. It also gave a TGI (TK-10 renal) of 96.3 µM, a TGI (HOP-62 NSCLC) of over 100 µM and a TGI (HCT-15 colon) of 32.8 µM. The TGI (786-0 renal) was 32.4 µM, the TGI (SW-620 colon) was 23.8 µM and the TGI (NCI-H522 lung) was 33.3 µM. For the same compound, the TGI (SF-268 CNS) was 79.4 µM, the TGI (A549 NSCLC) was 54.3 µM and the TGI (K-562 leukemia) was 38.9 µM. The TGI (CCRF-CEM leukemia) was 48.1 µM, the TGI (SR leukemia) was 72.7 µM and the TGI (HOP-18 NSCLC) was 1.76 µM. For the same compound, the TGI (LOX IMVI melanoma) was 33.8 µM, the TGI (UACC-62 melanoma) was 38.8 µM and the TGI (SNB-78 CNS) was over 100 µM. The TGI (UO-31 renal) was 31.8 µM, the TGI (M19-MEL melanoma) was 33.6 µM and the TGI (SF-539 CNS) was 44.3 µM. For the same compound, the TGI (DLD-1 colon) was 36.9 µM, the TGI (SK-MEL-28 melanoma) was 81 µM and the TGI (IGROV1 ovarian) was 35.7 µM. For the same compound, the TGI (COLO 205 colon) was 31.1 µM, the TGI (NCI-H226 lung) was 58.1 µM and the TGI (OVCAR-8 ovarian) was 30.6 µM. The TGI (CAKI-1 renal) was 64.6 µM.
